Earlier results as cited in article PMC4366302 (Organic & biomolecular chemistry, 2015).

Conditions: known inherent solubilities

O=C(NC1=CC(=O)[C@H]2O[C@H]2[C@H]1O)c1cc2ccccc2[nH]c1=O [PBS-1086]
S0 (inherent solubility of drug): 4.5 ± 0.90 µM

O=C1Cc2cc(CCN3CCN(c4nsc5ccccc45)CC3)c(Cl)cc2N1 [Ziprasidone, ziprasidone]
S0 (inherent solubility of drug): 63 ± 3.5 µM
